One assay deals with human plasma kallikrein (Homo sapiens (Human), UniProt P03952). In words: Kallikrein inhibition assay (FLINT) utilizing a quenched AMC peptide substrate. The format is biochemical. The conditions noted are these: 30 min preincubation, kinetic reads over 30 min, Z-Gly-Pro-Arg-AMC substrate 50 μM; read-out: Kallikrein Kin Inh IC50. Summed up:
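Fluorogenic Z-Gly-Pro-Arg-AMC cleavage (50 μM substrate, 2 nM kallikrein, Tris pH 7.5, CaCl2, BSA, CHAPS, 2% DMSO) read kinetically at 340/440 nm for 30 min after 30-min compound pre-incubation. Compounds in 11-point 3-fold series from 1 μM; percent inhibition fitted to four-parameter equation for IC50.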

For another assay, the target named is Factor XIa (Homo sapiens (Human), UniProt P03951). The experiment in a line: Factor XIa inhibition assay (FLINT) utilizing a fluorophore-quencher pair peptide substrate. The format is biochemical. Conditions: 30 min preincubation, kinetic reads over 30 min, read-out: FXIa Kin Inh IC50. The gist of the method:
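FXIa ([…]) preincubated 30 min with compound (11-point 3-fold dilution, top 100 nM, 2% DMSO), then 15 μM quenched FXI Arg146-based peptide added; Tris pH 7.5, CaCl2, BSA, CHAPS. Fluorescence 485/520 nm read kinetically every 5 min over 30 min at RT; IC50 by 4-parameter fit.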

[1] abbreviates: 5Fam-KLTRAETV-K5Tamra substrate 15 μM.
Where [2] appears, read: 5Fam-[…]-K5Tamra substrate 15 μM.

The values below come from patent US20230295157A1, “3-(1H-IMIDAZOL-2-YL)-2,3,8,8A-TETRAHYDROINDOLIZIN-5(1H)-ONE DERIVATIVES USEFUL AS FACTOR XIA INHIBITORS” (JANSSEN PHARMACEUTICA NV, priority 2020, published 2023).

Structures are written as SMILES. pIC50: −log10 of the molar value. Where two headings read alike, the source gives them in different places.

human plasma kallikrein, sequence (P03952 391-638): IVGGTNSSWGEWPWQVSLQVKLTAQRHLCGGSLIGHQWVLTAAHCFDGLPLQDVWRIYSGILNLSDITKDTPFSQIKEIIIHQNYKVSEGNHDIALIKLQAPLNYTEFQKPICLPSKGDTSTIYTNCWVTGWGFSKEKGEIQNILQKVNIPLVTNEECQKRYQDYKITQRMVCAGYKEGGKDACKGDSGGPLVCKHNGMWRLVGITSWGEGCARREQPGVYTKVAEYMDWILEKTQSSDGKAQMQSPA
human plasma kallikrein, sequence (P03952 20-390 partner): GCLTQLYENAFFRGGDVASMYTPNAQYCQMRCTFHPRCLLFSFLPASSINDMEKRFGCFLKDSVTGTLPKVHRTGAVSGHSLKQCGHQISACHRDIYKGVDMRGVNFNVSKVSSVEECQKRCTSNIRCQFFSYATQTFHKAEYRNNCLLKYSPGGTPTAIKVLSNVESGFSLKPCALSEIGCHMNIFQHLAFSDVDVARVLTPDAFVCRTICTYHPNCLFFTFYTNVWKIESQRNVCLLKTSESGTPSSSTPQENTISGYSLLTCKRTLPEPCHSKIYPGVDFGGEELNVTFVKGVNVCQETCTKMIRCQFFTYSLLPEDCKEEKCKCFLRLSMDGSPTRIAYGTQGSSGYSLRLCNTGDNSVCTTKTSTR
Factor XIa, sequence (P03951 388-625): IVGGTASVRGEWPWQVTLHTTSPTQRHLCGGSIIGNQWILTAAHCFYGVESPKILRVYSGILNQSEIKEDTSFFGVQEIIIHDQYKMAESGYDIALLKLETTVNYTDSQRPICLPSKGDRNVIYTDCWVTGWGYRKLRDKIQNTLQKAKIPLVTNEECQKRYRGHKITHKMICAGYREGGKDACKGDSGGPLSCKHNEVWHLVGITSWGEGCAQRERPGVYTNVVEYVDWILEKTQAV
Factor XIa, sequence (P03951 19-387 partner): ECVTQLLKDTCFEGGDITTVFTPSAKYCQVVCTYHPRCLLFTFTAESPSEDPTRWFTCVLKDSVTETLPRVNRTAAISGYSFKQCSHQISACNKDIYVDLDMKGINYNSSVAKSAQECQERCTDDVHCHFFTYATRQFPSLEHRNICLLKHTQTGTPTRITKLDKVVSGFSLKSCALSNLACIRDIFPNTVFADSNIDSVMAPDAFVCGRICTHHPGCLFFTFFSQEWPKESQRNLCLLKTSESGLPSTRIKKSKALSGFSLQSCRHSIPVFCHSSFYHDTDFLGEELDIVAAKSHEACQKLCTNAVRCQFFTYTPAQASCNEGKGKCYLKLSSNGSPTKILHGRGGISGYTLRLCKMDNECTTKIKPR

By pIC50 is commonly meant the negative decadic logarithm of the IC50, by convention in mol/L. On to `CC(C)(O)COc1nccc(-c2cnc([C@@H]3CC[C@@H]4CC(c5c(-n6cnnn6)ccc(Cl)c5F)=CC(=O)N43)[nH]2)c1F` [Example 166, (3S,8aR)-7-[3-chloro-2-fluoro-6-(tetrazol-1-yl)phenyl]-3-[5-[3-fluoro-2-(2-hydroxy-2-methyl-propoxy)-4-pyridyl]-1H-imidazol-2-yl]-2,3,8,8a-tetrahydro-1H-indolizin-5-one], for which the negative-log IC50 (pIC50) is 8.18 on human plasma kallikrein and 9.10 at Factor XIa (setting [1]).
For `Nc1ccc(-c2cnc([C@@H]3CC[C@@H]4CC(c5c(-n6cnnn6)ccc(Cl)c5F)=CC(=O)N43)[nH]2)c(C(F)(F)F)n1` [Example 167, (3S,8aR)-3-(5-(6-amino-2-(trifluoromethyl)pyridin-3-yl)-1H-imidazol-2-yl)-7-(3-chloro-2-fluoro-6-(1H-tetrazol-1-yl)phenyl)-2,3,8,8a-tetrahydroindolizin-5(1H)-one], in that order: 6.43 and 7.51.
On to `O=C1C=C(c2c(-n3cnnn3)ccc(Cl)c2F)C[C@H]2CC[C@@H](c3nc(Cl)c(-c4ccnc([C@@H](O)C(F)(F)F)c4)[nH]3)N12` [Example 173, (3S,8aR)-7-(3-chloro-2-fluoro-6-(1H-tetrazol-1-yl)phenyl)-3-(4-chloro-5-(2-((R)-2,2,2-trifluoro-1-hydroxyethyl)pyridin-4-yl)-1H-imidazol-2-yl)-2,3,8,8a-tetrahydroindolizin-5(1H)-one], for which the negative-log IC50 (pIC50) is 8.15 at human plasma kallikrein and 8.77 on Factor XIa (setting [1]).
As for `N#CCc1nccc(-c2c[nH]c([C@@H]3CC[C@@H]4CC(c5c(-n6cnnn6)ccc(Cl)c5F)=CC(=O)N43)n2)c1F` [Example 176, 2-(4-(2-((3S,8aR)-7-(3-chloro-2-fluoro-6-(1H-tetrazol-1-yl)phenyl)-5-oxo-1,2,3,5,8,8a-hexahydroindolizin-3-yl)-1H-imidazol-4-yl)-3-fluoropyridin-2-yl)acetonitrile], the negative-log IC50 (pIC50) at human plasma kallikrein is 7.55; at Factor XIa (setting [1]), 8.40.
For `COCc1nccc(-c2c[nH]c([C@@H]3CCC4CC(c5c(-n6cnnn6)ccc(Cl)c5F)=CC(=O)N43)n2)c1F` (stereo partly drawn) [Example 177, (3S)-7-(3-chloro-2-fluoro-6-(1H-tetrazol-1-yl)phenyl)-3-(4-(3-fluoro-2-(methoxymethyl)pyridin-4-yl)-1H-imidazol-2-yl)-2,3,8,8a-tetrahydroindolizin-5(1H)-one], in that order: 7.67 and 8.51.
The corresponding values for `O=C1C=C(c2c(-n3cnnn3)ccc(Cl)c2F)C[C@H]2CC[C@H](c3nc(Cl)c(-c4ccnc(C5(O)CC5)c4)[nH]3)N12` [Example 178, (3R,8aR)-7-(3-chloro-2-fluoro-6-(1H-tetrazol-1-yl)phenyl)-3-(4-chloro-5-(2-(1-hydroxycyclopropyl)pyridin-4-yl)-1H-imidazol-2-yl)-2,3,8,8a-tetrahydroindolizin-5(1H)-one] are 8.96 and 9.40.
The corresponding values for `O=C1C=C(c2c(-n3cnnn3)ccc(Cl)c2F)C[C@H]2CC[C@H](c3nc(F)c(-c4ccnc(C5(O)CC5)c4)[nH]3)N12` [Example 179, (3R,8aR)-7-(3-chloro-2-fluoro-6-(1H-tetrazol-1-yl)phenyl)-3-(4-fluoro-5-(2-(1-hydroxycyclopropyl)pyridin-4-yl)-1H-imidazol-2-yl)-2,3,8,8a-tetrahydroindolizin-5(1H)-one] are 8.85 and 9.30.
Turning to `COCCNC(=O)c1nccc(-c2cnc([C@@H]3CC[C@@H]4CC(c5c(-n6cnnn6)ccc(Cl)c5F)=CC(=O)N43)[nH]2)c1F` [Example 180, 4-(2-((3S,8aR)-7-(3-chloro-2-fluoro-6-(1H-tetrazol-1-yl)phenyl)-5-oxo-1,2,3,5,8,8a-hexahydroindolizin-3-yl)-1H-imidazol-5-yl)-3-fluoro-N-(2-methoxyethyl)picolinamide], the pIC50 on human plasma kallikrein is 7.48; on Factor XIa (setting [1]) it was 8.07.
The corresponding values for `NC(=O)c1nccc(-c2cnc([C@@H]3CC[C@@H]4CC(c5c(-n6cnnn6)ccc(Cl)c5F)=CC(=O)N43)[nH]2)c1F` [Example 181, 4-(2-((3S,8aR)-7-(3-chloro-2-fluoro-6-(1H-tetrazol-1-yl)phenyl)-5-oxo-1,2,3,5,8,8a-hexahydroindolizin-3-yl)-1H-imidazol-5-yl)-3-fluoropicolinamide] are 7.75 and 8.08.
Regarding `O=C(O)c1nccc(-c2cnc([C@@H]3CC[C@@H]4CC(c5c(-n6cnnn6)ccc(Cl)c5F)=CC(=O)N43)[nH]2)c1F` [Example 182, 4-(2-((3S,8aR)-7-(3-chloro-2-fluoro-6-(1H-tetrazol-1-yl)phenyl)-5-oxo-1,2,3,5,8,8a-hexahydroindolizin-3-yl)-1H-imidazol-5-yl)-3-fluoropicolinic acid], the results for the pIC50 at human plasma kallikrein and at Factor XIa (setting [1]) were 7.85 and 9.40, respectively.
Turning to `O=C1C=C(c2c(-n3cnnn3)ccc(Cl)c2F)C[C@H]2CC[C@@H](c3ncc(-c4ccnc(OCC5(O)CC5)c4F)[nH]3)N12` [Example 183, (3S,8aR)-7-(3-chloro-2-fluoro-6-(1H-tetrazol-1-yl)phenyl)-3-(5-(3-fluoro-2-((1-hydroxycyclopropyl)methoxy)pyridin-4-yl)-1H-imidazol-2-yl)-2,3,8,8a-tetrahydroindolizin-5(1H)-one], the pIC50 on human plasma kallikrein was 8.42; on Factor XIa (setting [2]), 9.22.
For `[2H]C([2H])(O)c1nccc(-c2nc([C@@H]3CC[C@@H]4CC(c5c(-n6cnnn6)ccc(Cl)c5F)=CC(=O)N43)[nH]c2Br)c1F` [Example 184, (3S,8aR)-3-(5-bromo-4-(3-fluoro-2-(hydroxymethyl-d2)pyridin-4-yl)-1H-imidazol-2-yl)-7-(3-choro-2-fluoro-6-(1H-tetrazol-1-yl)phenyl)-2,3,8,8a-tetrahydroindolizin-5(1H)-one], in that order: 6.68 and 8.14.
`C[C@@H](O)c1nccc(-c2cnc([C@@H]3CC[C@@H]4CC(c5c(-n6cnnn6)ccc(Cl)c5F)=CC(=O)N43)[nH]2)c1F` [Example 185, (3S,8aR)-7-(3-chloro-2-fluoro-6-(1H-tetrazol-1-yl)phenyl)-3-(5-(3-fluoro-2-((R)-1-hydroxyethyl)pyridin-4-yl)-1H-imidazol-2-yl)-2,3,8,8a-tetrahydroindolizin-5(1H)-one]: the negative logarithm of the IC50 (pIC50) was 7.47 on human plasma kallikrein and 8.19 on Factor XIa (setting [1]).
For `C[C@H](O)c1nccc(-c2cnc([C@@H]3CC[C@@H]4CC(c5c(-n6cnnn6)ccc(Cl)c5F)=CC(=O)N43)[nH]2)c1F` [Example 186, (3S,8aR)-7-(3-chloro-2-fluoro-6-(1H-tetrazol-1-yl)phenyl)-3-(5-(3-fluoro-2-((S)-1-hydroxyethyl)pyridin-4-yl)-1H-imidazol-2-yl)-2,3,8,8a-tetrahydroindolizin-5(1H)-one], in that order: 7.45 and 8.34.
For `O=C1C=C(c2c(-n3cnnn3)ccc(Cl)c2F)C[C@H]2CC[C@H](c3ncc(-c4ccnc(N5CCC[C@H](O)C5)c4F)[nH]3)N12` [Example 188, (3R,8aR)-7-(3-chloro-2-fluoro-6-(1H-tetrazol-1-yl)phenyl)-3-(5-(3-fluoro-2-((S)-3-hydroxypiperidin-1-yl)pyridin-4-yl)-1H-imidazol-2-yl)-2,3,8,8a-tetrahydroindolizin-5(1H)-one], in that order: 8.11 and 7.76.
In the case of `[2H]C([2H])(O)c1nccc(-c2cnc([C@@H]3CCC4CC(c5c(-n6cnnn6)ccc(Cl)c5F)=CC(=O)N43)[nH]2)c1Cl` (stereo partly drawn) [Example 189, (3S)-3-(5-(3-chloro-2-(hydroxymethyl-d2)pyridin-4-yl)-1H-imidazol-2-yl)-7-(3-chloro-2-fluoro-6-(1H-tetrazol-1-yl)phenyl)-2,3,8,8a-tetrahydroindolizin-5(1H)-one], the pIC50 at human plasma kallikrein was 7.78; at Factor XIa (setting [2]), 8.74.
With `CC(C)(O)COc1nccc(-c2c[nH]c([C@@H]3CC[C@@H]4CC(c5c(-n6cnnn6)ccc(Cl)c5F)=CC(=O)N43)n2)c1F` [Example 190], the pIC50 on human plasma kallikrein was 8.03; at Factor XIa (setting [1]), 8.92.
Turning to `CC(C)(O)COc1nccc(-c2c[nH]c([C@@H]3CC[C@@H]4CC(c5c(-n6cc(C(F)(F)F)nn6)ccc(Cl)c5F)=CC(=O)N43)n2)c1F` [Example 191, (3S,8aR)-7-(3-Chloro-2-fluoro-6-(4-(trifluoromethyl)-1H-1,2,3-triazol-1-yl)phenyl)-3-(4-(3-fluoro-2-(2-hydroxy-2-methylpropoxy)pyridin-4-yl)-1H-imidazol-2-yl)-2,3,8,8a-tetrahydroindolizin-5(1H)-one], the pIC50 on human plasma kallikrein was 7.46; at Factor XIa (setting [2]) it was 8.42.
For `CS(=O)(=O)NC(=O)c1sc(-c2c[nH]c(C3CC[C@@H]4CC(c5c(-n6cc(C(F)(F)F)nn6)ccc(Cl)c5F)=CC(=O)N34)n2)cc1F` (stereo partly drawn) [Example 192, 5-(2-((8aR)-7-(3-chloro-2-fluoro-6-(4-(trifluoromethyl)-1H-1,2,3-triazol-1-yl)phenyl)-5-oxo-1,2,3,5,8,8a-hexahydroindolizin-3-yl)-1H-imidazol-4-yl)-3-fluoro-N-(methylsulfonyl)thiophene-2-carboxamide], in that order: 7.53 and 8.27.
`O=C(O)c1ccc(-c2cnc([C@@H]3CCC4CC(c5c(-n6cc(Cl)nn6)ccc(Cl)c5F)=CC(=O)N43)[nH]2)s1` (stereo partly drawn) [Example 193, 5-(2-((3S)-7-(3-chloro-6-(4-chloro-1H-1,2,3-triazol-1-yl)-2-fluorophenyl)-5-oxo-1,2,3,5,8,8a-hexahydroindolizin-3-yl)-1H-imidazol-4-yl)thiophene-2-carboxylic acid]: the negative-log IC50 (pIC50) at human plasma kallikrein was 7.84; on Factor XIa (setting [1]), 9.40.
